In patent publication US9796704B2, “Substituted quinazolines as receptor-type kinase inhibitors” (Symphony Evolution, Inc., priority 2002, dated 2017):

Experiments:
EphB4 = EphB4 (Homo sapiens (Human), UniProt P54760); experiment: EphB4 kinase inhibition, 33P phosphoryl transfer assay (radiometric); assay type: biochemical
KDR = KDR (Homo sapiens (Human), UniProt P35968); experiment: KDR kinase inhibition, luciferase-coupled chemiluminescent assay (LCCA); conditions: read-out: KDR IC50
Protocol: (§1) Kinase activity and compound inhibition are investigated using one or more of the three assay formats described below. The ATP concentrations are selected near its Michaelis-Menten constant (KM) for each individual kinase. Dose-response experiments are performed at ten different inhibitor concentrations in a 384-well plate format. […] Typically H is close to unity.
(§2) In the LCCA assays, kinase activity is measured by the ATP consumption that is accurately measured by luciferase-coupled chemiluminescence. Greiner 384-well white clear bottom medium binding plates are used for LCCA. Briefly the kinase reaction is initiated by mixing compounds, ATP and kinases in a 20 μL volume. At the end of the kinase reaction, a 20 μL luciferase-luciferin mix is added and the chemiluminescent signal is read on a Wallac Victor^2 reader.

EGFR = EGFR (Homo sapiens (Human), UniProt P00533); experiment: EGFR kinase inhibition, luciferase-coupled chemiluminescent assay (LCCA); conditions: read-out: EGFR IC50
Protocol: as §1, §2

EphA2 = EphA2 (Homo sapiens (Human), UniProt P29317); experiment: EphA2 kinase inhibition, luciferase-coupled chemiluminescent assay (LCCA); conditions: read-out: EphA2 IC50
Sequence of EphA2 (P29317 598-890): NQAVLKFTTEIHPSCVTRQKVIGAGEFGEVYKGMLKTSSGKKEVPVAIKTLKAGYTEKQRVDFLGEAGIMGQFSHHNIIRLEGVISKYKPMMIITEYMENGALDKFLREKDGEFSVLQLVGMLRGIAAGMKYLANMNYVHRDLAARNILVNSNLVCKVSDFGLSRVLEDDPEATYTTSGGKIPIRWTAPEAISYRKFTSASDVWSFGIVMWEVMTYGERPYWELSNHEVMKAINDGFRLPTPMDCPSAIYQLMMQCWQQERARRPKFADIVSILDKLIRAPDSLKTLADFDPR
Protocol: as §1, §2

Sequence of KDR (P35968 807-1356): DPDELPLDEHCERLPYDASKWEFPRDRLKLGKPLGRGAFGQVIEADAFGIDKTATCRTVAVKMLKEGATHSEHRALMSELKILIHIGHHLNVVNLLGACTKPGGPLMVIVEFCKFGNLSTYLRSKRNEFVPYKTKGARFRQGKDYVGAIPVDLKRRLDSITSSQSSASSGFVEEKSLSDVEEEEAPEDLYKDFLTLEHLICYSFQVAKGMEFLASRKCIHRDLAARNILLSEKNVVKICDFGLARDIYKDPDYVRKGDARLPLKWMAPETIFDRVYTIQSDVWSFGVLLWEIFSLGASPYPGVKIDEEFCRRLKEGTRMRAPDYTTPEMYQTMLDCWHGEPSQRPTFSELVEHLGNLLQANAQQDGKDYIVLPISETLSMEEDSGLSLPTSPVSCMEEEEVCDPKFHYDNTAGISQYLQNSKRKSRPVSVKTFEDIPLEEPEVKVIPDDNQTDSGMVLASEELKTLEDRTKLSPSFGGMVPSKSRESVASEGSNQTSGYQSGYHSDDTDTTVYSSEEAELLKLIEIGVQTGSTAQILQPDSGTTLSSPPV
Sequence of EphB4 (P54760 605-890): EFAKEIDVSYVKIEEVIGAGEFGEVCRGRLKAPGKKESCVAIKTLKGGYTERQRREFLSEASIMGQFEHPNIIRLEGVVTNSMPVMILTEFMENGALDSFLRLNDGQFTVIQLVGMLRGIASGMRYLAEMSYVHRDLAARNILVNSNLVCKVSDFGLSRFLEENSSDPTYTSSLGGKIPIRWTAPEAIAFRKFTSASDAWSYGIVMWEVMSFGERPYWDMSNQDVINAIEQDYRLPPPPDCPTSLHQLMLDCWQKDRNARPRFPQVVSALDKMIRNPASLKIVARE
Sequence of EGFR (P00533 672-1210): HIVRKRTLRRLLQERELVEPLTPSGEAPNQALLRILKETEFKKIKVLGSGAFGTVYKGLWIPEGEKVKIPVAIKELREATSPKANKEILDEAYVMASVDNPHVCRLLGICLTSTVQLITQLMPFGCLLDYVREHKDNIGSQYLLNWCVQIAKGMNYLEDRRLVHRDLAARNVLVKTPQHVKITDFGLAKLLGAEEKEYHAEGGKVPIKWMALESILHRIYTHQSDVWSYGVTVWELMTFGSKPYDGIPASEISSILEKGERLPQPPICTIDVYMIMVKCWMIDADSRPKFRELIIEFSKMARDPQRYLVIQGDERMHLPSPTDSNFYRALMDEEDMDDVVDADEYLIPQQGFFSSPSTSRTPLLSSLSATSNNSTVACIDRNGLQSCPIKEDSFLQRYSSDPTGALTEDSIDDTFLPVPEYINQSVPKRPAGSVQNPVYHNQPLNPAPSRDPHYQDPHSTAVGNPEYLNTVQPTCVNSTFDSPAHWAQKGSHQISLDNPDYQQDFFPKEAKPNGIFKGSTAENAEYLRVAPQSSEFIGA

Work on COc1cc2c(Nc3ccc(Cl)c(Cl)c3)ncnc2cc1OCc1nc(CN2CCN(C)CC2)no1 [Example 140, N-(3,4-dichlorophenyl)-6-(methyloxy)-7-[({3-[(4-methylpiperazin-1-yl)methyl]-1,2,4-oxadiazol-5-yl}methyl)oxy]quinazolin-4-amine] yielded an IC50 (EphB4) of under 50 nM, an IC50 (KDR) of under 50 nM and an IC50 (EGFR) of under 50 nM.

Compound COc1cc2c(Nc3ccc(Cl)c(Cl)c3)ncnc2cc1OCc1noc(-c2cccc(C(F)(F)F)c2)n1 [Example 166, N-(3,4-dichlorophenyl)-6-(methyloxy)-7-[({5-[3-(trifluoromethyl)phenyl]-1,2,4-oxadiazol-3-yl}methyl)oxy]quinazolin-4-amine] has an IC50 (KDR) of under 50 nM and an IC50 (EGFR) of under 50 nM.

Work on COc1cc2c(Nc3c(F)cccc3F)ncnc2cc1O[C@@H]1CO[C@@H]2[C@H]1OC[C@H]2F [Example 87, 1,4:3,6-dianhydro-2-deoxy-5-O-[4-[(2,6-difluorophenyl)amino]-6-(methyloxy)quinazolin-7-yl]-2-fluoro-D-iditol] yielded an IC50 (KDR) of under 50 nM and an IC50 (EGFR) of under 50 nM.

With COc1cc2c(Nc3ccc(Cl)cc3F)ncnc2cc1O[C@@H]1CO[C@@H]2[C@H]1OC[C@H]2F [Example 109, 1,4:3,6-dianhydro-5-O-[4-[(4-chloro-2-fluorophenyl)amino]-6-(methyloxy)quinazolin-7-yl]-2-deoxy-2-fluoro-D-iditol] the IC50 (KDR) was under 50 nM and the IC50 (EGFR) was under 50 nM.

In the case of COc1cc2c(Nc3ccc(Cl)c(Cl)c3)ncnc2cc1OCc1noc(C(C)(C)C)n1 [Example 157, N-(3,4-dichlorophenyl)-7-({[5-(1,1-dimethylethyl)-1,2,4-oxadiazol-3-yl]methyl}oxy)-6-(methyloxy)quinazolin-4-amine], the IC50 (KDR) is reported as under 50 nM and the IC50 (EGFR) is reported as under 50 nM.

COc1cc2c(Nc3c(F)cc(F)cc3Br)ncnc2cc1O[C@@H]1CO[C@@H]2[C@H]1OC[C@H]2F [Example 120, 1,4:3,6-dianhydro-5-O-[4-[(2-bromo-4,6-difluorophenyl)amino]-6-(methyloxy)quinazolin-7-yl]-2-deoxy-2-fluoro-D-iditol] was tested, and the IC50 (KDR) was under 50 nM and the IC50 (EGFR) was under 50 nM.

Work on COc1cc2c(Nc3ccc(F)cc3F)ncnc2cc1O[C@@H]1CO[C@@H]2[C@H]1OC[C@H]2F [Example 90, 1,4:3,6-dianhydro-2-deoxy-5-O-[4-[(2,4-difluorophenyl)amino]-6-(methyloxy)quinazolin-7-yl]-2-fluoro-D-iditol] yielded an IC50 (KDR) of under 50 nM and an IC50 (EGFR) of under 50 nM.

Work on COc1cc2c(Nc3ccc(Cl)c(Cl)c3)ncnc2cc1OCc1csc(N2CCNCC2)n1 [Example 262, N-(3,4-dichlorophenyl)-6-(methyloxy)-7-{[(2-piperazin-1-yl-1,3-thiazol-4-yl)methyl]oxy}quinazolin-4-amine] yielded an IC50 (EphB4) of 50 to 1000 nM, an IC50 (EGFR) of under 50 nM and an IC50 (EphA2) of 1000 to 20000 nM.

For COc1cc2c(Nc3ccc(Br)c(Cl)c3)ncnc2cc1O[C@H]1CO[C@H]2[C@@H]1OC[C@H]2OC [Example 78, 1,4:3,6-dianhydro-2-O-[4-[(4-bromo-3-chlorophenyl)amino]-6-(methyloxy)quinazolin-7-yl]-5-O-methyl-D-glucitol], the IC50 (KDR) was under 50 nM.

Compound COCCN1CCCOC(COc2cc3ncnc(Nc4ccc(Cl)c(Cl)c4)c3cc2OC)C1 (stereo not drawn) [Example 260, N-(3,4-dichlorophenyl)-6-(methyloxy)-7-[({4-[2-(methyloxy)ethyl]-1,4-oxazepan-2-yl}methyl)oxy]quinazolin-4-amine] has an IC50 (EphB4) of 50 to 1000 nM, an IC50 (EGFR) of under 50 nM and an IC50 (EphA2) of 1000 to 20000 nM.

Compound COc1cc2c(Nc3cccc(Br)c3C)ncnc2cc1O[C@H]1CO[C@H]2[C@@H]1OC[C@@H]2OC [Example 75, 1,4:3,6-dianhydro-2-O-[4-[(3-bromo-2-methylphenyl)amino]-6-(methyloxy)quinazolin-7-yl]-5-O-methyl-L-iditol] has an IC50 (EphB4) of under 50 nM, an IC50 (EGFR) of under 50 nM and an IC50 (EphA2) of 50 to 1000 nM.

COc1cc2c(Nc3ccc(Cl)c(Cl)c3)ncnc2cc1OCC(=O)N1CCOCC1 [Example 195, N-(3,4-dichlorophenyl)-6-(methyloxy)-7-[(2-morpholin-4-yl-2-oxoethyl)oxy]quinazolin-4-amine] gave an IC50 (EphB4) of 50 to 1000 nM, an IC50 (EGFR) of under 50 nM and an IC50 (EphA2) of 50 to 1000 nM.

With COc1cc2c(Nc3ccc(Cl)c(Cl)c3)ncnc2cc1OCc1nc(N2CCOCC2)no1 [Example 205, N-(3,4-dichlorophenyl)-6-(methyloxy)-7-{[(3-morpholin-4-yl-1,2,4-oxadiazol-5-yl)methyl]oxy}quinazolin-4-amine] the IC50 (EphB4) was under 50 nM, the IC50 (EGFR) was under 50 nM and the IC50 (EphA2) was 50 to 1000 nM.

COc1cc2c(Nc3ccc(Cl)c(Cl)c3)ncnc2cc1OCc1csc(CO)n1 [Example 246, [4-({[4-[(3,4-dichlorophenyl)amino]-6-(methyloxy)quinazolin-7-yl]oxy}methyl)-1,3-thiazol-2-yl]methanol] gave an IC50 (EphB4) of under 50 nM, an IC50 (EGFR) of under 50 nM and an IC50 (EphA2) of under 50 nM.

Work on COc1cc2c(Nc3cc(C(F)(F)F)ccc3Cl)ncnc2cc1O[C@@H]1CO[C@@H]2[C@H]1OC[C@H]2F [Example 122, 1,4:3,6-dianhydro-5-O-[4-{[2-chloro-5-(trifluoromethyl)phenyl]amino}-6-(methyloxy)quinazolin-7-yl]-2-deoxy-2-fluoro-D-iditol] yielded an IC50 (KDR) of under 50 nM and an IC50 (EGFR) of under 50 nM.

CCN1CCCC(c2nc(COc3cc4ncnc(Nc5ccc(Cl)c(Cl)c5)c4cc3OC)cs2)C1 (stereo not drawn) [Example 254, N-(3,4-dichlorophenyl)-7-({[2-(1-ethylpiperidin-3-yl)-1,3-thiazol-4-yl]methyl}oxy)-6-(methyloxy)quinazolin-4-amine] was tested, and the IC50 (EphB4) was 50 to 1000 nM, the IC50 (EGFR) was under 50 nM and the IC50 (EphA2) was 1000 to 20000 nM.

COc1cc2c(Nc3ccc(Cl)c(Cl)c3)ncnc2cc1OCCC1OCCCO1 [Example 189, N-(3,4-dichlorophenyl)-7-{[2-(1,3-dioxan-2-yl)ethyl]oxy}-6-(methyloxy)quinazolin-4-amine] showed an IC50 (EphB4) of 50 to 1000 nM, an IC50 (EGFR) of under 50 nM and an IC50 (EphA2) of 50 to 1000 nM.

Compound COc1cc2c(Nc3ccc(Cl)c(Cl)c3)ncnc2cc1OCc1csc([C@@H]2CSCN2)n1 [Example 248, N-(3,4-dichlorophenyl)-6-(methyloxy)-7-[({2-[(4S)-1,3-thiazolidin-4-yl]-1,3-thiazol-4-yl}methyl)oxy]quinazolin-4-amine] has an IC50 (EphB4) of 50 to 1000 nM, an IC50 (EGFR) of under 50 nM and an IC50 (EphA2) of 50 to 1000 nM.

For COc1cc2c(Nc3ccc(Cl)c(Cl)c3)ncnc2cc1OCc1csc2ccc(Cl)cc12 [Example 225, 7-{[(5-chloro-1-benzothien-3-yl)methyl]oxy}-N-(3,4-dichlorophenyl)-6-(methyloxy)quinazolin-4-amine], the IC50 (EphB4) was 1000 to 20000 nM, the IC50 (EGFR) was under 50 nM and the IC50 (EphA2) was 1000 to 20000 nM.

In the case of COc1cc2c(Nc3cc(Cl)c(Cl)cc3F)ncnc2cc1OC[C@@H]1CO[C@H]2[C@@H]1OC[C@@H]2OC [Example 48, 1,4:3,6-dianhydro-5-deoxy-5-({[4-[(4,5-dichloro-2-fluorophenyl)amino]-6-(methyloxy)quinazolin-7-yl]oxy}methyl)-2-O-methyl-D-glucitol], the IC50 (EphB4) is reported as 1000 to 20000 nM, the IC50 (EGFR) is reported as under 50 nM and the IC50 (EphA2) is reported as 1000 to 20000 nM.

For COc1cc2c(Nc3ccc(Cl)c(Cl)c3)ncnc2cc1OCC1CN(C)CCO1 (stereo not drawn) [Example 151, N-(3,4-dichlorophenyl)-7-{[(4-methylmorpholin-2-yl)methyl]oxy}-6-(methyloxy)quinazolin-4-amine], the IC50 (EphB4) was 50 to 1000 nM, the IC50 (EGFR) was under 50 nM and the IC50 (EphA2) was 50 to 1000 nM.

Compound COc1cc2c(Nc3ccc(Br)c(Cl)c3)ncnc2cc1O[C@H]1CO[C@H]2[C@@H]1OC[C@@H]2OC [Example 73, 1,4:3,6-dianhydro-2-O-[4-[(4-bromo-3-chlorophenyl)amino]-6-(methyloxy)quinazolin-7-yl]-5-O-methyl-L-iditol] has an IC50 (KDR) of under 50 nM.

Compound COc1cc2c(Nc3ccc(Cl)c(Cl)c3)ncnc2cc1OCc1csc(C2CCCCN2)n1 (stereo not drawn) [Example 249, N-(3,4-dichlorophenyl)-6-(methyloxy)-7-{[(2-piperidin-2-yl-1,3-thiazol-4-yl)methyl]oxy}quinazolin-4-amine] has an IC50 (EphB4) of 50 to 1000 nM, an IC50 (EGFR) of under 50 nM and an IC50 (EphA2) of 50 to 1000 nM.

COc1cc2c(Nc3ccc(Cl)c(Cl)c3)ncnc2cc1OCc1nc(N(C)C)no1 [Example 206, N-(3,4-dichlorophenyl)-7-({[3-(dimethylamino)-1,2,4-oxadiazol-5-yl]methyl}oxy)-6-(methyloxy)quinazolin-4-amine] was tested, and the IC50 (EphB4) was 50 to 1000 nM, the IC50 (EGFR) was under 50 nM and the IC50 (EphA2) was 50 to 1000 nM.

For COc1cc2c(Nc3ccc(Cl)c(Cl)c3)ncnc2cc1OCc1noc(-c2c(C)noc2C)n1 [Example 224, N-(3,4-dichlorophenyl)-7-({[5-(3,5-dimethylisoxazol-4-yl)-1,2,4-oxadiazol-3-yl]methyl}oxy)-6-(methyloxy)quinazolin-4-amine], the IC50 (EphB4) was 50 to 1000 nM, the IC50 (EGFR) was under 50 nM and the IC50 (EphA2) was 50 to 1000 nM.

COc1cc2c(Nc3ccc(Cl)c(Cl)c3)ncnc2cc1OCC1CN(C(C)C)CCO1 (stereo not drawn) [Example 270, N-(3,4-dichlorophenyl)-7-({[4-(1-methylethyl)morpholin-2-yl]methyl}oxy)-6-(methyloxy)quinazolin-4-amine] gave an IC50 (EphB4) of 50 to 1000 nM, an IC50 (EGFR) of under 50 nM and an IC50 (EphA2) of 1000 to 20000 nM.

COc1cc2c(Nc3ccc(Cl)c(Cl)c3)ncnc2cc1OCc1nc([C@@H]2CCCN2C)no1 [Example 265, N-(3,4-dichlorophenyl)-6-(methyloxy)-7-[({3-[(2S)-1-methylpyrrolidin-2-yl]-1,2,4-oxadiazol-5-yl}methyl)oxy]quinazolin-4-amine] was tested, and the IC50 (EphB4) was 50 to 1000 nM, the IC50 (EGFR) was under 50 nM and the IC50 (EphA2) was 1000 to 20000 nM.

COc1ccc(OC)c(Nc2ncnc3cc(O[C@@H]4CO[C@@H]5[C@H]4OC[C@H]5F)c(OC)cc23)c1 [Example 134, 1,4:3,6-dianhydro-5-O-[4-{[2,5-bis(methyloxy)phenyl]amino}-6-(methyloxy)quinazolin-7-yl]-2-deoxy-2-fluoro-D-iditol] was tested, and the IC50 (KDR) was under 50 nM and the IC50 (EGFR) was under 50 nM.
